Where “and” joins values, the source holds several entries; their conditions need not be identical. Equal entries are not always repeated.

The experiment deals with T1, leukotriene receptor (guinea pig lung membranes) (Cavia porcellus, UniProt Q2NNR5).
T1 construct: 20 mg original tissue wet weight of guinea pig lung; tissue Kuiper Rabbit Farm, Gary, IN (animals); host or cells: guinea pig lung, crude membranes
T1 sequence (Q2NNR5 1-340): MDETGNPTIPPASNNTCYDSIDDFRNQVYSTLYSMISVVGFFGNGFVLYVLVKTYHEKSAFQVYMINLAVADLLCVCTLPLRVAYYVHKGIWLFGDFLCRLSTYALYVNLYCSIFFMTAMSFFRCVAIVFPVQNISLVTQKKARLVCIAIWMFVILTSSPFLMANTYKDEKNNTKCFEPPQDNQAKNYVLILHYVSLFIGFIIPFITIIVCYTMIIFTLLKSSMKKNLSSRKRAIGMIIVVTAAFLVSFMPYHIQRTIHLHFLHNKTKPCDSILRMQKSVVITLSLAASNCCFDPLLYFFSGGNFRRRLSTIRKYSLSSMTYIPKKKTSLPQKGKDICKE
In words: Binding of ^3 H-Leukotriene D4 to Guinea Pig Lung Membranes (RBL). To be noted: 0.2 nM ^3 H-LTD4, 60 min, 25° C.; read-out: Concentration (M) for 50.0 % Inhibition, IC (RBL). The method, boiled down:
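Crude lung membranes from 300 g male guinea pigs (20 mg tissue/ml) were incubated in triplicate with 0.2 nM ³H-LTD4 in 50 mM Tris pH 7.7, 10 mM MgCl2, 1% DMSO for 60 min at 25 °C. Bound ligand was collected by GF/B filtration and scintillation counting; nonspecific binding defined with 100 nM LTC4.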
Take `O=C(Nc1ccc(CCCc2ccc(Cl)c(Cl)c2)cc1)C1=C(O)c2ccccc2S(=O)(=O)C1` [Example 79, 2H-1-Benzothiopyran-3-carboxamide, N-[4-[3-(3,4-dichlorphenyl)propyl]phenyl]-4-hydroxy-, 1,1-dioxide]: the IC50 was 4.13e-07 M and 5.3e-07 M.

Regarding `O=C(Nc1ccc(CCc2ccc3ccccc3c2)cc1)C1=C(O)c2ccccc2S(=O)(=O)C1` [Example 51, 4-Hydroxy-N-[4-[2-(2-naphthalenyl)ethyl]phenyl]-2H-1-benzothiopyran-3-carboxamide, 1,1-dioxide], the IC50 amounted to 3.84e-06 M.

Consider `O=C(Nc1cccc(CCc2ccc(Cl)c(Cl)c2)c1)c1sc2ccccc2c1O` [Example 146, Benzo[b]thiophene-2-carboxamide, N-[3-[2-(3,4-dichlorophenyl)ethyl]phenyl]-3-hydroxy], for which the IC50 was 1.02e-06 M.

With `O=C(Nc1ccc(CCc2c(F)c(F)c(F)c(F)c2F)cc1)C1=C(O)c2ccccc2S(=O)(=O)C1` [Example 64, N-[4-[2-(2,3,4,5,6-Pentafluorophenyl)ethyl]phenyl]-4-hydroxy-2H-1-benzothiopyran-3-carboxamide, 1,1-dioxide], the IC50 was 6.11e-06 M and 9.49e-06 M and 2.82e-06 M.

For the compound `O=C(Nc1ccccc1CCc1ccc(Cl)c(Cl)c1)C1=C(O)c2ccccc2S(=O)(=O)C1` [Example 8, N-[2-[2-(3,4-Dichlorophenyl)ethyl]phenyl]-4-hydroxy-2H-1-benzothiopyran-3-carboxamide, 1,1-dioxide], the IC50 was found to be 4.21e-06 M.

Turning to `COc1ccc(CCc2ccc(NC(=O)c3sc4ccccc4c3O)cc2)cc1OC` [Example 143, Benzo[b]thiophene-2-carboxamide, N-[4-[2-(3,4-dimethoxphenyl)ethyl]phenyl]-3-hydroxy], the IC50 was 1.21e-05 M.

In the case of `COc1ccc(CCc2ccc(NC(=O)C3CS(=O)(=O)c4ccccc4C3=O)cc2)cc1O` (centres unmarked) [Example 27, 3,4-Dihydro-N-[4-[2-(3-hydroxy-4-methoxyphenyl)ethyl]phenyl]-4-oxo-2H-1-benzothiopyran-3-carboxamide, 1,1-dioxide], the IC50 is 0.000106 M and 0.00012 M.

For the compound `CCCCCCCCCCc1ccc(NC(=O)C2CS(=O)(=O)c3ccccc3C2=O)cc1` (centres unmarked) [Example 60, N-(4-Decylphenyl)-3,4-dihydro-4-oxo-2H-1-benzoothiopyran-3-carboxamide, 1,1-dioxide], the IC50 was 1.21e-05 M.

As for `COc1ccc(CCc2ccc(NC(=O)C3CS(=O)(=O)c4ccccc4C3=O)cc2)cc1` (centres unmarked) [Example 41], the IC50 is 1.26e-05 M.

For `O=C(Nc1ccc(CCc2ccc(Cl)cc2)cc1)C1CS(=O)(=O)c2ccccc2C1=O` (centres unmarked) [Example 54, N-[4-[2-(4-Chlorophenyl)ethyl]phenyl]-3,4-dihydro-4-oxo-2H-1-benzothiopyran-3-carboxamide, 1,1-dioxide], the IC50 came to 1.09e-05 M.

As for `Cc1ccc(CCc2ccc(NC(=O)C3CS(=O)(=O)c4ccccc4C3=O)cc2)cc1C` (centres unmarked) [Example 53, N-[4-[2-(3,4-Dimethylphenyl)ethyl]phenyl]-3,4-dihydro-4-oxo-2H-1-benzothiopyran-3-carboxamide, 1,1-dioxide], the IC50 stood at 3.54e-06 M.

For the compound `O=C(Nc1ccc(C=Cc2ccc([N+](=O)[O-])cc2)cc1)C1CS(=O)(=O)c2ccccc2C1=O` (centres unmarked) [Example 67, 2H-1-Benzothiopyran-3-carboxamide, 3,4-dihydro-N-[4-[2-(4-nitrophenyl)ethenyl]phenyl]-4-oxo-, 1,1-dixide], the IC50 is 6.56e-06 M and 1.04e-05 M.

On to `O=C(Nc1ccc(CCc2ccccc2)cc1)C1CS(=O)(=O)c2ccccc2C1=O` (centres unmarked) [Example 16, 3,4-Dihydro-4-oxo-N-[(4-(2-phenyl)ethyl]-phenyl]-2H-1-benzothiopyran-3-carboxamide, 1,1-dioxide], for which the IC50 was 1.28e-05 M.

Regarding `O=C(Nc1ccccc1Cc1ccc(Cl)c(Cl)c1)C1=C(O)c2ccccc2S(=O)(=O)C1` [Example 81, 2H-1-Benzothiopyran-3-carboxamide, N-[2-[(3,4-dichlorophenyl)methyl]phenyl]-4-hydroxy, 1,1-dioxide], the IC50 is 1.01e-05 M.

For `O=C(Nc1ccc(CCc2ccc(-c3ccccc3)cc2)cc1)C1CS(=O)(=O)c2ccccc2C1=O` (centres unmarked) [Example 46, N-[4-[2-([1,1'-biphenyl]-4-yl)ethyl]phenyl]-3,4-dihydro-4-oxo-2H-1-benzothiopyran-3-carboxamide, 1,1-dioxide], the IC50 is 2.15e-05 M and 1.87e-05 M.

Regarding `O=C(Nc1ccc(CCc2cccc3ccccc23)cc1)C1=C(O)c2ccccc2S(=O)(=O)C1` [Example 73, 2H-1-Benzothiopyran-3-carboxamide, 4-hydroxy-N-[4-[2-(1-naphthalenyl)ethyl]phenyl], 1,1-dioxide], the IC50 is 3.84e-06 M.

`COc1ccc(CCc2ccc(NC(=O)C3=C(O)c4ccccc4S(=O)(=O)C3)cc2)cc1OC` [Example 18, N-[4-[2-(3,4-Dimethoxyphenyl)ethyl]phenyl]-4-hydroxy-2H-1-benzothiopyran-3-carboxamide, 1,1-dioxide]: the IC50 came to 7.19e-05 M.

With `CCCCOc1ccc(CCc2ccc(NC(=O)C3CS(=O)(=O)c4ccccc4C3=O)cc2)cc1` (centres unmarked) [Example 48], the IC50 is 6.48e-06 M and 1.19e-05 M and 2e-05 M and 1.29e-05 M.

For `O=C(Nc1ccc(Cc2ccc(Cl)c(Cl)c2)cc1)C1=C(O)c2ccccc2S(=O)(=O)C1` [Example 78, 2H-1-Benzothiopyran-3-carboxamide, N-[4-[(3,4-dichlorophenyl)methyl]phenyl]-4-hydroxy-, 1,1-dioxide], the IC50 was 4.82e-06 M.

On to `O=C(Nc1ccccc1CCCc1ccc(Cl)c(Cl)c1)C1=C(O)c2ccccc2S(=O)(=O)C1` [Example 80, 2H-1-Benzothiopyran-3-carboxamide, N-[2-[3-(3,4-dichlorophenyl)propyl]phenyl]-4-hydroxy-, 1,1-dioxide], for which the IC50 was 1.27e-05 M.

Turning to `O=C(Nc1cccc(CCc2ccc(Cl)c(Cl)c2)c1)C1=C(O)c2ccccc2S(=O)(=O)C1` [Example 76, 2H-1-Benzothiopyran-3-carboxamide, N-[3-[2-(3,4-dichlorophenyl)ethyl]phenyl]-4-hydroxy-, 1,1-dioxide], the IC50 was 3e-06 M.

With `COc1cc(CCc2ccc(NC(=O)C(=O)c3sc4ccccc4c3O)cc2)ccc1O` [Example 142, Benzo[b]thiophene-2-acetamide, 3-hydroxy-N-[4-[2-(4-hydroxy-3-methoxyphenyl)ethyl]phenyl]-α-oxo-], the IC50 stood at 6.1e-05 M.

Consider `O=C(Nc1ccc(C=Cc2ccc(Cl)c(Cl)c2)cc1)C1=C(O)c2ccccc2S(=O)(=O)C1` [Example 74, 2H-1-Benzothiopyran-3-carboxamide, N-[4-[2-(3,4-dichlorophenyl)ethenyl]phenyl]-4-hydroxy-, 1,1-dioxide], for which the IC50 was 5.27e-06 M.

The values above are taken from US4868195A, “Novel enolamides, pharmaceutical compositions and methods of use thereof for activity as modulators of the arachidonic acid cascade” (Warner-Lambert Company, priority 1988, dated 1989).
